Values quoted from earlier work, collected in article PMC2866165 (Nuclear medicine and biology, 2010).

Assays:
PDE3A = settings: read-out: IC50 for PDE3A
PDE4D = settings: read-out: IC50 for PDE4D

In the case of `COc1ccc(Cc2nccc3cc(OC)c(OC)cc23)cc1OC` [Papaverine, 1-(3,4-dimethoxybenzyl)-6,7-dimethoxyisoquinoline], the IC50 (PDE3A) is listed as 1300 nM, the IC50 (PDE4D) is listed as 320 nM and the “Biological half-life in rat plasma” value is listed as 15 min.
